The structures appear in SMILES notation. The source made the active and inactive calls. The rule behind the calls is not given here.

The results in this text go back to ChEMBL document CHEMBL1938256, “Synthesis and DNA cleavage studies of novel quinoline oxime esters” (Bioorg Med Chem Lett, 2012).

Holding throughout (assay type): nucleic-acid assay
For test [1], the system named is Nucleic Acid. Briefly: Induction of UV light-induced Escherichia coli pUC19 DNA cleavage assessed as conversion of supercoiled DNA into linear form at 80 uM by neutral agarose gel electrophoresis.
The test system of test [2] is Nucleic Acid. As to the kind of experiment: Induction of UV light-induced Escherichia coli pUC19 DNA cleavage assessed as conversion of supercoiled DNA into nicked form at 80 uM by neutral agarose gel electrophoresis.
Test [3] deals with Nucleic Acid. As to the kind of experiment: Induction of Escherichia coli pUC19 DNA cleavage assessed as conversion of supercoiled DNA into nicked circular form at 40 to 80 uM by neutral agarose gel electrophoresis in presence of UV light.

For `O=C(O/N=C/c1cc2ccccc2nc1Cl)c1ccccc1`, the outcome in test [1] and in test [2] was inactive. In test [3], the outcome was Active.
In the case of `COc1ccc(C(=O)O/N=C/c2cc3ccccc3nc2Cl)cc1`, the result in test [1] and in test [2] was inactive. Moreover, the result in test [3] was Active.
For the compound `O=C(O/N=C/c1cc2ccccc2nc1Cl)c1ccc(O)cc1`, the outcome in test [1] and in test [2] was inactive. In addition, the outcome in test [3] was Active.
For the compound `O=C(O/N=C/c1cc2ccccc2nc1Cl)c1ccc(Br)cc1`, the outcome in test [1], in test [2] and in test [3] was Active.
For the compound `O=C(O/N=C/c1cc2ccccc2nc1Cl)c1ccc(Cl)cc1`, the outcome in test [1], in test [2] and in test [3] was Active.
For `O=C(O/N=C/c1cc2ccccc2nc1Cl)c1cc([N+](=O)[O-])cc([N+](=O)[O-])c1`, the outcome in test [1], in test [2] and in test [3] was Active.
With `O=C(O/N=C/c1cc2ccccc2nc1Cl)c1ccc(F)cc1`, the result in test [1], in test [2] and in test [3] was Active.
`O=C(O/N=C/c1cc2ccccc2nc1Cl)c1ccc([N+](=O)[O-])cc1`: the outcome in test [1], in test [2] and in test [3] was Active.
`O=C(O/N=C/c1cc2ccccc2nc1Cl)c1ccccc1F`: the outcome in test [1], in test [2] and in test [3] was Active.
